Read-outs that look alike come from different tables or passages of the source.
Tests used:
[1] = Fluorescence turn-on sensing and titration of silver ions; settings: for ratio [Ag^+]:[probe] at which PL intensity is saturated / maximum: probe 5 μM; for LOD (limit of detection) of silver ions / Linear Range of silver ion detection: probe 5 μM in DI-water, excitation 345 nm
Description: The turn-on fluorescence response was instant. The detection of silver ions was highly sensitive and sharp intensity changes could be detected with the naked eye. DLS (Dynamic light scattering) measurement confirmed the formation of nanoparticles. […] This is likely due to the reduction of silver-tetrazole complexes by the strong electron-beam during TEM studies. These emissive silver-compound solid complexes are hardly soluble in a range of solvents, including DMSO, methanol, and water. NMR analysis of these complexes is not possible. The complexes are also resistant to acid/base treatment, or heating by a heat-gun.
In fluorescence spectroscopy, solutions containing silver ions behaved quite differently from solutions without silver ions in terms of intensity, with the ratio of intensity at maximum peak at 504 nm exceeding 400 times (FIGS. 3A-3D). […] By plotting the intensity of maximum intensive peaks against the ratio of ion concentrations, it was expected that the working curve for the quantitative detection of silver ions could be established. […] Meanwhile, the detection limit (LOD) of silver ions is estimated to be 40 nM (S/N=3 and n=11). With a further increase of [Ag^+], the intensity reaches a plateau.
Tetrazole-tagged AIE luminogen TPE-4TTZ (5 μM) undergoes a fluorescence turn-on response towards a solution of silver ions. The solutions can include organic solutions, aqueous solutions including natural water, wastes and/or biological buffer solutions. PL spectra were recorded on a Perkin-Elmer LS 55 spectrofluorometer.
The solutions included organic solutions, aqueous solutions including natural water, wastes and/or biological buffer solutions. For the same probes, the calibration curve varied a little in different solutions. UV spectra were measured on a Biochrom Libra S80PC double beams spectrometer. PL spectra were recorded on a Perkin-Elmer LS 55 spectrofluorometer.

[2] = Fluorescent quantum yield in solid state and in solution; type: physicochemical; settings: solid state
Protocol: (§1) The present compounds are strongly emissive in the solid state with good fluorescent quantum yields. The compounds are weakly emissive or non-emissive when dissolved in aqueous solutions. […] In contrast, when these compounds are dissolved, the solutions only emit faint light (Qy<1%). The compounds dissolve well in alcohols. The compounds can be modestly dissolved (for TPE-4TTZ, up 100 μM in DI-water) in the aqueous phase. Furthermore by the addition of NaOH solutions, the formed salts dissolve well in the aqueous phase (for TPE-4TTZ, up to 1 M in water).

[3] = Solubility in the aqueous phase; type: physicochemical
Protocol: as §1

[4] = Interference of silver-binding reagents with silver sensing; settings: TPE-4TTZ 5 μM, anions 100 equiv.
Protocol: Detection can be based on selective coordination involving electrostatic interactions. Tests were conducted to determine whether silver binding moieties (e.g., anions) might be another kind of interfering factor in the mixture. […] After a short while of shaking, the probe (10 eq.) was added. Each solution was gently mixed and then checked in a PL machine. Compared with the control group, the interfering reagents including amino acids and DNA/RNA bases were only weakly interfering with the silver-tetrazole sensing process. In other words, the tetrazole anions can snatch silver ions from these ligands and elicit a fluorescence turn-on. There were exceptions, in particular for strong silver-interacting structures. Cysteine, the sulfur-containing amino acid, blocked sensing by the strong S—Ag interaction. Similar results were seen from SCN^− and S2O3^2-, due to their stronger binding affinity towards Ag^+ than the tetrazole anion (CN4^−). In addition, ammonium solution blocked sensing by reducing Ag^+ into metallic silver.
With reference to FIG. […] PL spectra were recorded on a Perkin-Elmer LS 55 spectrofluorometer. […] In each example, the silver-binding molecule was added prior to the addition of the probes from a stock solution. The stock solution of the probe is 1 mM in ethanol. PL spectra were recorded on a Perkin-Elmer LS 55 spectrofluorometer.

[5] = Selectivity: fluorescence response to mercury ions
Description: (§2) As selectivity is an important parameter for sensing technique, responses of these probes to other metal ions were examined. […] Mercury is reported to coordinate with the tetrazole group.
The Ag^+/Hg^2+ coordination-induced fluorescence can be pH-sensitive. For example, with respect to TPE-4TTZ, a series of tests were done in phosphate buffer solutions at different pH varying from 4 to 12. At pH lower than 4, the tetrazole moiety (pKa˜4-5) was largely in the protonated form and sparingly soluble in solution and, thus, aggregated. The aggregation elicited fluorescence with a different color from that of the silver complexes. Therefore, the turn-on detection is only possible in solutions with pH>4. […] Furthermore regarding the mercury detection, the FL response was significant only at the pH window (4˜7); when pH>8, the fluorescence turn-on was not observed anymore. […]
With reference to FIG. 7, tetrazole-tagged AIE luminogen TPE-4TTZ (10 μM) underwent a fluorescence turn-on response towards a solution of silver ions in the presence of other metal ions in phosphate aqueous solution (10 mM, pH 7.4). PL spectra were recorded on a Perkin-Elmer LS 55 spectrofluorometer. Tetrazole-tagged AIE luminogen TPE-4TTZ (10 μM) underwent a fluorescence turn-on response towards a solution of silver ions in the presence of other silver-binding molecules in phosphate aqueous solution (10 mM, pH 7.4). […]

[6] = pH dependence of Ag^+ induced fluorescence in phosphate buffer; settings: phosphate buffer solutions
Description: The Ag^+/Hg^2+ coordination-induced fluorescence can be pH-sensitive. For example, with respect to TPE-4TTZ, a series of tests were done in phosphate buffer solutions at different pH varying from 4 to 12. At pH lower than 4, the tetrazole moiety (pKa˜4-5) was largely in the protonated form and sparingly soluble in solution and, thus, aggregated. The aggregation elicited fluorescence with a different color from that of the silver complexes. Therefore, the turn-on detection is only possible in solutions with pH>4. When pH is from 5˜6, PL response is significant enough for a high resolution detection of silver ions. […] Furthermore regarding the mercury detection, the FL response was significant only at the pH window (4˜7); when pH>8, the fluorescence turn-on was not observed anymore. Thus, TPE-4TTZ is only sensitive to silver ions in basic solutions. Similar observations were made for the other tetrazole-tagged TPEs.

[7] = Selectivity: fluorescence response to other metal ions
Protocol: as §2
With reference to FIG. 7, tetrazole-tagged AIE luminogen TPE-4TTZ (10 μM) underwent a fluorescence turn-on response towards a solution of silver ions in the presence of other metal ions in phosphate aqueous solution (10 mM, pH 7.4). PL spectra were recorded on a Perkin-Elmer LS 55 spectrofluorometer. Tetrazole-tagged AIE luminogen TPE-4TTZ (10 μM) underwent a fluorescence turn-on response towards a solution of silver ions in the presence of other silver-binding molecules in phosphate aqueous solution (10 mM, pH 7.4). In each example, the silver-binding molecule was added prior to the addition of the probes from a stock solution. The stock solution of the probe is 1 mM in ethanol. PL spectra were recorded on a Perkin-Elmer LS 55 spectrofluorometer.

[8] = cited from earlier work
[9] = phosphate aqueous solution 10 mM, pH 7.4

Row | fluorescent quantum yield (Qy) [2] [%] | solubility ([3]; deionised water, DI-water, read-out: solubility in the aqueous phase) [mM] | solubility ([3]; water with added NaOH solution, aqueous buffer, water, after addition of NaOH solution, read-out: solubility of the formed salt in the aqueous phase) [mM] | fluorescence on mixing with different anions without Ag^+ [4] | Structure (SMILES) | ratio [Ag^+]:[probe] at which PL intensity is saturated / maximum [1] | LOD (limit of detection) of silver ions [1] [nM] | Linear Range of silver ion detection [1] | PL response to mercury ions [5, 9] | pH window with significant FL response to mercury ([5]; phosphate buffer solutions, pH 4 to 12) | pH at which maximum PL response to silver is relatively stable [6] | pH at which turn-on detection of silver is possible ([6]; pH 4 to 12) | fluorescence response on addition of silver ions ([1]; TPE-4TTZ 5 μM, silver ions 500 μM, UV 350 nm) | PL response to Mg^2+, Mn^2+, Zn^2+, Al^3+ etc. [7, 9] | effect of Fe^2+, Fe^3+, Co^2+ and Cu^2+ on fluorescence ([7]; same conditions) | pKa of tetrazole moiety [8]
1 | 39.6 |  |  |  | c1ccc(C(=C(c2ccccc2)c2ccc(-c3nnn[nH]3)cc2)c2ccccc2)cc1 [TPE-1TTZ] | 0.6 | 1.5 | 0.1~3 μM |  |  |  |  |  |  |  | 
2 | 36.2 |  |  |  | c1ccc(C(=C(c2ccc(-c3nnn[nH]3)cc2)c2ccc(-c3nnn[nH]3)cc2)c2ccccc2)cc1 [TPE-2TTZ] | 2.6 | 3.0 | 0.2~10 μM |  |  |  |  |  |  |  | 
3 | 76.8 | ≤ 0.1 | ≤ 1000 | did not generate strong fluorescence | c1cc(-c2nnn[nH]2)ccc1C(=C(c1ccc(-c2nnn[nH]2)cc1)c1ccc(-c2nnn[nH]2)cc1)c1ccc(-c2nnn[nH]2)cc1 [TPE-4TTZ] | ~4 | 2.3 | 0.04~15 μM | significant enhancement of PL intensity | 4˜7 | > 6 | > 4 | highly emissive | hardly increased the PL intensity | quench the weak fluorescence | 4-5

From patent US12029796B2, “Fluorescent probes for silver ION detection” (THE HONG KONG UNIVERSITY OF SCIENCE AND TECHNOLOGY, priority 2017, dated 2024)
